Results as given in US20260265329A1, “POLYPEPTIDE AND DERIVATIVE THEREOF, COMPOSITION, AND USE THEREOF” (HANGZHOU SCIWIND BIOSCIENCES CO., LTD., priority 2023, published 2026).
Starred links: 1 amine or outer side, 2 acyl side, 3 side chain; linkers in the order of their positions; H or OH if unused. Non-standard residues stand in square brackets, D forms with d. Residues, ends and D or L forms follow the SMILES beside them. *: point of attachment. C20 diacid = O=C(O)CCCCCCCCCCCCCCCCCCC(=O)*; γGlu = O=C(O)[C@H](CCC(=O)[*:2])N[*:1]; βAsp = O=C(O)[C@H](CC(=O)[*:2])N[*:1]; Trx = NC[C@H]1CC[C@H](C(=O)O)CC1; AEEA = NCCOCCOCC(=O)O; Inp = O=C(O)C1CCNCC1

Biological target: T1, human amylin receptors (Homo sapiens, UniProt O60896+P30988)
T1 construct: host or cells: CHO-K1/Ga15/AMY3 cells, further stably transfected with a CRE-luciferase plasmid
T1 sequence (P30988 25-474): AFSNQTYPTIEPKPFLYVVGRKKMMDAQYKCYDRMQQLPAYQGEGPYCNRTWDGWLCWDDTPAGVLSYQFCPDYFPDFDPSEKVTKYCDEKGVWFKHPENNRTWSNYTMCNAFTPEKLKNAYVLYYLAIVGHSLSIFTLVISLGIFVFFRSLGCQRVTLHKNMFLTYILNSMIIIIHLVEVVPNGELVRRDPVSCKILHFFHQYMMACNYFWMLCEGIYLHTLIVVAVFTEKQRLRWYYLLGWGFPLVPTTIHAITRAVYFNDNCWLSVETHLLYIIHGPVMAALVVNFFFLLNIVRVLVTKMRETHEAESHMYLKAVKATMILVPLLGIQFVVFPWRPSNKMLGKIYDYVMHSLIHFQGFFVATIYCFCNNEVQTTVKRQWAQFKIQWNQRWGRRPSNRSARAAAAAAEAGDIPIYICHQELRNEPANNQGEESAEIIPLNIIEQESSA
T1 sequence (O60896 24-148 partner): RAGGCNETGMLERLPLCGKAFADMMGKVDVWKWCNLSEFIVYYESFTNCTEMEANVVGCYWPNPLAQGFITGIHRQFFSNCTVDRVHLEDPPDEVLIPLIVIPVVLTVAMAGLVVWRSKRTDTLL
Assay: Luciferase assay in stably transfected amylin receptor/CRE-luc CHO cell line
Format: cell-based
Settings: for Relative activity: EC50 ratio of Cagrilintide to the compound, Cagrilintide 100%; for EC50: amylin receptor/CRE-luc CHO cells, 24 hours incubation, luminescence
From the text: The objective of this assay is to test the potency of derivatives of polypeptides of the present application on human amylin receptors in vitro using a luciferase assay. Using the standard protocol, CHO-K1/Ga15/AMY3 cells (purchased from GenScript, with the calcitonin receptor and the receptor activity modifying peptide (RAMP) constructed already) were transfected with a plasmid containing a luciferase expression cassette driven by multiple copies of cAMP response elements (CREs). The cells were cultured in an F12 medium containing 200 μg/mL Zeocin, 2 μg/mL puromycin, 100 μg/mL hygromycin, and 400 μg/mL G418 to afford a stably transfected amylin receptor/CRE-luc cell line. The lyophilized powder from Example 1 was dissolved in 20 mM phosphate buffer solution with a pH of 7.0, and diluted in a growth medium (F12 culture medium containing 10% FBS) to give a derivative sample with an initial concentration of 10 nM, which was then subjected to a 5-fold serial dilution in the growth medium to obtain seven samples with concentrations between […]. In each well of a white 96-well plate, 50 μL of the tested sample solution was added with a corresponding concentration. The stably transfected amylin receptor/CRE-luc CHO cells were resuspended in the growth medium at a certain density, and 50 μL of the cell suspension was added at a density of about 20000 cells per well to the white 96-well plate containing the tested sample solution. After incubation of 24 hours at 37° C. and 5% CO2, 100 μL of a Luciferase substrate was added to each well, incubated for 3 minutes, and finally was tested for luminescence on SpectraMax L (Molecular Devices) with the software SoftMax Pro 7.0.3 GxP.

Row | SMILES | Relative activity [%] | EC50 [nM]
1 | CC[C@H](C)[C@H](NC(=O)[C@H](CC(=O)O)NC(=O)[C@H](CCCNC(=N)N)NC(=O)[C@H](CC(=O)O)NC(=O)[C@H](CCCNC(=N)N)NC(=O)[C@H](CC(=O)O)NC(=O)[C@@H](NC(=O)[C@H](Cc1ccccc1)NC(=O)[C@H](Cc1c[nH]cn1)NC(=O)[C@H](CCCNC(=N)N)NC(=O)[C@H](CC(C)C)NC(=O)[C@H](Cc1ccccc1)NC(=O)[C@H](CC(=O)O)NC(=O)[C@H](C)NC(=O)[C@H](CC(C)C)NC(=O)[C@H](CCCNC(=N)N)NC(=O)[C@H](CCC(N)=O)NC(=O)[C@@H](NC(=O)[C@H](C)NC(=O)[C@H](C)NC(=O)[C@@H](NC(=O)[C@H](CO)NC(=O)[C@H](CC(C)C)NC(=O)[C@H](CCC(N)=O)NC(=O)[C@H](CO)NC(=O)[C@H](C)NC(=O)C1CCN(C(=O)CCCCCCCCCCCCCCCCCCC(=O)O)CC1)[C@@H](C)O)[C@@H](C)O)[C@@H](C)O)C(=O)N[C@@H](CC(C)C)C(=O)N1CCC[C@H]1C(=O)N1CCC[C@H]1C(=O)N[C@H](C(=O)N[C@@H](CC(N)=O)C(=O)N[C@H](C(=O)NCC(=O)N[C@@H](CO)C(=O)N[C@@H](CC(N)=O)C(=O)N[C@H](C(=O)N1CCC[C@H]1C(N)=O)[C@@H](C)O)C(C)C)[C@@H](C)O [M15] ({C20 diacid-Inp}-ASQLSTAATQRLADFLRHFTDRDRDILPPTNVGSNTP-NH2) | 81 | 0.03
2 | CC[C@H](C)[C@H](NC(=O)[C@H](CC(=O)O)NC(=O)[C@H](CCCNC(=N)N)NC(=O)[C@H](CC(=O)O)NC(=O)[C@H](CCCNC(=N)N)NC(=O)[C@H](CC(=O)O)NC(=O)[C@@H](NC(=O)[C@H](Cc1ccccc1)NC(=O)[C@H](Cc1c[nH]cn1)NC(=O)[C@H](CCCNC(=N)N)NC(=O)[C@H](CC(C)C)NC(=O)[C@H](Cc1ccccc1)NC(=O)[C@H](CC(=O)O)NC(=O)[C@H](C)NC(=O)[C@H](CC(C)C)NC(=O)[C@H](CCCNC(=N)N)NC(=O)[C@H](CCC(N)=O)NC(=O)[C@@H](NC(=O)[C@H](C)NC(=O)[C@H](C)NC(=O)[C@@H](NC(=O)[C@H](CO)NC(=O)[C@H](CC(C)C)NC(=O)[C@H](CCC(N)=O)NC(=O)[C@H](CO)NC(=O)[C@H](C)NC(=O)COCCOCCNC(=O)COCCOCCNC(=O)CC[C@H](NC(=O)CCCCCCCCCCCCCCCCCCC(=O)O)C(=O)O)[C@@H](C)O)[C@@H](C)O)[C@@H](C)O)C(=O)N[C@@H](CC(C)C)C(=O)N1CCC[C@H]1C(=O)N1CCC[C@H]1C(=O)N[C@H](C(=O)N[C@@H](CC(N)=O)C(=O)N[C@H](C(=O)NCC(=O)N[C@@H](CO)C(=O)N[C@@H](CC(N)=O)C(=O)N[C@H](C(=O)N1CCC[C@H]1C(N)=O)[C@@H](C)O)C(C)C)[C@@H](C)O [M16] ({C20 diacid-γGlu-AEEA-AEEA}-ASQLSTAATQRLADFLRHFTDRDRDILPPTNVGSNTP-NH2) | 58 | 0.042
3 | CC[C@H](C)[C@H](NC(=O)[C@H](CC(=O)O)NC(=O)[C@H](CCCNC(=N)N)NC(=O)[C@H](CC(=O)O)NC(=O)[C@H](CCCNC(=N)N)NC(=O)[C@H](CC(=O)O)NC(=O)[C@@H](NC(=O)[C@H](Cc1ccccc1)NC(=O)[C@H](Cc1c[nH]cn1)NC(=O)[C@H](CCCNC(=N)N)NC(=O)[C@H](CC(C)C)NC(=O)[C@H](Cc1ccccc1)NC(=O)[C@H](CC(=O)O)NC(=O)[C@H](C)NC(=O)[C@H](CC(C)C)NC(=O)[C@H](CCCNC(=N)N)NC(=O)[C@H](CCC(N)=O)NC(=O)[C@@H](NC(=O)[C@H](C)NC(=O)[C@H](C)NC(=O)[C@@H](NC(=O)[C@H](CO)NC(=O)[C@H](CC(C)C)NC(=O)[C@H](CCC(N)=O)NC(=O)[C@H](CO)NC(=O)[C@H](C)NC(=O)COCCOCCNC(=O)COCCOCCNC(=O)C[C@H](NC(=O)CCCCCCCCCCCCCCCCCCC(=O)O)C(=O)O)[C@@H](C)O)[C@@H](C)O)[C@@H](C)O)C(=O)N[C@@H](CC(C)C)C(=O)N1CCC[C@H]1C(=O)N1CCC[C@H]1C(=O)N[C@H](C(=O)N[C@@H](CC(N)=O)C(=O)N[C@H](C(=O)NCC(=O)N[C@@H](CO)C(=O)N[C@@H](CC(N)=O)C(=O)N[C@H](C(=O)N1CCC[C@H]1C(N)=O)[C@@H](C)O)C(C)C)[C@@H](C)O [M18] ({C20 diacid-βAsp-AEEA-AEEA}-ASQLSTAATQRLADFLRHFTDRDRDILPPTNVGSNTP-NH2) | 110 | 

Second part, the molecule after the results:

Row | Relative activity [%] | EC50 [nM] | SMILES
4 | 136 |  | CC[C@H](C)[C@H](NC(=O)[C@H](CC(=O)O)NC(=O)[C@H](CCCNC(=N)N)NC(=O)[C@H](CC(=O)O)NC(=O)[C@H](CCCNC(=N)N)NC(=O)[C@H](CC(=O)O)NC(=O)[C@@H](NC(=O)[C@H](Cc1ccccc1)NC(=O)[C@H](Cc1c[nH]cn1)NC(=O)[C@H](CCCNC(=N)N)NC(=O)[C@H](CC(C)C)NC(=O)[C@H](Cc1ccccc1)NC(=O)[C@H](CC(=O)O)NC(=O)[C@H](C)NC(=O)[C@H](CC(C)C)NC(=O)[C@H](CCCNC(=N)N)NC(=O)[C@H](CCC(N)=O)NC(=O)[C@@H](NC(=O)[C@H](C)NC(=O)[C@H](C)NC(=O)[C@@H](NC(=O)[C@H](CO)NC(=O)[C@H](CC(C)C)NC(=O)[C@H](CCC(N)=O)NC(=O)[C@H](CO)NC(=O)[C@H](C)NC(=O)[C@H]1CC[C@H](CNC(=O)CCCCCCCCCCCCCCCCCCC(=O)O)CC1)[C@@H](C)O)[C@@H](C)O)[C@@H](C)O)C(=O)N[C@@H](CC(C)C)C(=O)N1CCC[C@H]1C(=O)N1CCC[C@H]1C(=O)N[C@H](C(=O)N[C@@H](CC(N)=O)C(=O)N[C@H](C(=O)NCC(=O)N[C@@H](CO)C(=O)N[C@@H](CC(N)=O)C(=O)N[C@H](C(=O)N1CCC[C@H]1C(N)=O)[C@@H](C)O)C(C)C)[C@@H](C)O [M14] ({C20 diacid-Trx}-ASQLSTAATQRLADFLRHFTDRDRDILPPTNVGSNTP-NH2)
5 | 94 | 0.026 | CC[C@H](C)[C@H](NC(=O)[C@H](CC(=O)O)NC(=O)[C@H](CCCNC(=N)N)NC(=O)[C@H](CC(=O)O)NC(=O)[C@H](CCCNC(=N)N)NC(=O)[C@H](CC(=O)O)NC(=O)[C@@H](NC(=O)[C@H](Cc1ccccc1)NC(=O)[C@H](Cc1c[nH]cn1)NC(=O)[C@H](CCCNC(=N)N)NC(=O)[C@H](CC(C)C)NC(=O)[C@H](Cc1ccccc1)NC(=O)[C@H](CC(=O)O)NC(=O)[C@H](C)NC(=O)[C@H](CC(C)C)NC(=O)[C@H](CCCNC(=N)N)NC(=O)[C@H](CCC(N)=O)NC(=O)[C@@H](NC(=O)[C@H](C)NC(=O)[C@H](C)NC(=O)[C@@H](NC(=O)[C@H](CO)NC(=O)[C@H](CC(C)C)NC(=O)[C@H](CCC(N)=O)NC(=O)[C@H](CO)NC(=O)[C@H](C)NC(=O)COCCOCCNC(=O)COCCOCCNC(=O)[C@H](CCC(=O)O)NC(=O)CCCCCCCCCCCCCCCCCCC(=O)O)[C@@H](C)O)[C@@H](C)O)[C@@H](C)O)C(=O)N[C@@H](CC(C)C)C(=O)N1CCC[C@H]1C(=O)N1CCC[C@H]1C(=O)N[C@H](C(=O)N[C@@H](CC(N)=O)C(=O)N[C@H](C(=O)NCC(=O)N[C@@H](CO)C(=O)N[C@@H](CC(N)=O)C(=O)N[C@H](C(=O)N1CCC[C@H]1C(N)=O)[C@@H](C)O)C(C)C)[C@@H](C)O [M17] ({C20 diacid}-E[AEEA][AEEA]ASQLSTAATQRLADFLRHFTDRDRDILPPTNVGSNTP-NH2)
6 | 80 | 0.036 | CC[C@H](C)[C@H](NC(=O)[C@H](CC(=O)O)NC(=O)[C@H](CCCNC(=N)N)NC(=O)[C@H](CC(=O)O)NC(=O)[C@H](CCCNC(=N)N)NC(=O)[C@H](CC(=O)O)NC(=O)[C@@H](NC(=O)[C@H](Cc1ccccc1)NC(=O)[C@H](Cc1c[nH]cn1)NC(=O)[C@H](CCCNC(=N)N)NC(=O)[C@H](CC(C)C)NC(=O)[C@H](Cc1ccccc1)NC(=O)[C@H](CC(=O)O)NC(=O)[C@H](C)NC(=O)[C@H](CC(C)C)NC(=O)[C@H](CCCNC(=N)N)NC(=O)[C@H](CCC(N)=O)NC(=O)[C@@H](NC(=O)[C@H](C)NC(=O)[C@H](C)NC(=O)[C@@H](NC(=O)[C@H](CO)NC(=O)[C@H](CC(C)C)NC(=O)[C@H](CCC(N)=O)NC(=O)[C@H](CO)NC(=O)[C@H](C)NC(=O)COCCOCCNC(=O)COCCOCCNC(=O)[C@H](CC(=O)O)NC(=O)CCCCCCCCCCCCCCCCCCC(=O)O)[C@@H](C)O)[C@@H](C)O)[C@@H](C)O)C(=O)N[C@@H](CC(C)C)C(=O)N1CCC[C@H]1C(=O)N1CCC[C@H]1C(=O)N[C@H](C(=O)N[C@@H](CC(N)=O)C(=O)N[C@H](C(=O)NCC(=O)N[C@@H](CO)C(=O)N[C@@H](CC(N)=O)C(=O)N[C@H](C(=O)N1CCC[C@H]1C(N)=O)[C@@H](C)O)C(C)C)[C@@H](C)O [M19] ({C20 diacid}-D[AEEA][AEEA]ASQLSTAATQRLADFLRHFTDRDRDILPPTNVGSNTP-NH2)
